Source: patent US11306063B2, “Heterocyclic naphthoquinones derivatives for use in the treatment of cancers including Cushing disease” (Commissariat a l'Energie Atomique et aux Energies …, priority 2016, dated 2022)
pEC50: −log10 of the molar value.

Columns and labels:
LNCaP cells spheroids = assay: Cell death in 3D spheroids (PI/Hoechst, high content analysis); type: cell-based, human; conditions: 1 to 3 days, increasing concentration, FIG. 2C
Procedure: Spheroids were then stained with Hoechst and Propidium Iodure (PI). The area of each staining was calculated via automated imaging. Histograms represent the medium value of the PI/Hoechst areas ratio calculated on 3 to 6 independent spheroids. Error bars indicate the standard deviation between technical replicates. One out of three experiments is presented.
For 3D cell culture (spheroids), the LNCaP-FGC (fast growing colony) cell line (ATCC #CRL1740) was used. This cell line derives from the LNCaP cell line (Human Prostatic Carcinoma) which shares all the main characteristics, including its androgen sensitivity, described for the parental line and HCT116 (ATCC #CCL 247) (Human Colorectal Carcinoma) cell lines. […]
An automated imaging protocol was designed to monitor the induction of cell death in the spheroids by high content analysis methods (HCA). 3 hours before reading, cells were labeled with vital Hoechst (400 ng/ml) (Thermo Fischer Scientific #33342) and Propidium Iodide (PI) at 1 μg/ml (Sigma Aldrich #P4864) as markers of cell nuclei and cell death respectively. Images of PI and Hoechst fluorescence were acquired using the automated microscope ArrayScan^VTI (ThermoScientific) and 5 times magnification. […]

HCC827 cells = assay: Cell growth inhibition and cell death induction (Incucyte), HCC827; type: cell-based, human; conditions: 72 hours, FIG. 12A,B
Excerpt: FIG. 12: The cell growth inhibition and cell death induction of non-small cell lung cancers (NSCLC), HCC827 cells and derivative Gefitinib-resistant clone H1975 (FIG. 12 A,B) and of PC-3 (FIG. 12 C,D) and LnCAP (FIG. 12 E,F) were monitored using Incucyte microscope. Histogram represent in A,C,E: the final cell area relative to the total well area in (%) and in B,D,F: the fluorescent area in μm2. Error bars indicate standard deviation between 6 technical replicates.
The cell growth inhibition and cell death induction of non-small cell lung cancers (NSCLC), HCC827 cells and derivative Gefitinib-resistant clone H1975 were monitored during a period of 72 hours using Incucyte microscope and dedicated programs allowing to monitor cell confluency (i.e.: cell surface area relative to total well surface) and cell death induction by adding Propidium Iodide (PI) at 1 μg/ml (Sigma Aldrich #P4864) in the culture medium.

HCT116 cells = assay: Cytotoxicity assay (PrestoBlue cell viability), HCT116; type: cell-based; conditions: Homo sapiens, HCT-116; 48 hours treatment
Procedure: Messa, Messa DX5, HCT116, HEK-293, PC-3, LNCaP, HCC827 and H1975 cell lines are issued from the American Type Culture Collection (ATCC).
Messa, Messa DX5 and HCT116 were maintained in McCoy's supplemented with 10% fetal bovine serum, and 1% penicillin/streptomycin. PC-3, LNCaP cells were maintained in RPMI medium supplemented with 10% fetal bovine serum, and 1% penicilin/streptomycin and in the case of Messa DX5: 500 nM Doxorubicin was added to maintain selection pressure. HEK293 were maintained in DMEM medium supplemented with 10% fetal bovine serum, and 1% penicillin/streptomycin. Cells were maintained at 37° C. with 5% CO2, 95% air, and humid atmosphere. In the case of hormonal dependent LNCaP cells, 2 μM DiHydroTestosterone (DHT) was added or not—depending on the type of biological assay—for the same incubation period as compounds.
For cytotoxicity assays, cells were seeded in 96-well microplates 24 hours before the addition of increasing concentrations of each compound in the culture medium. Cell viability was analyzed 48 hours following addition of each compound through the monitoring of mitochondrial […] activity using PrestoBlue® Cell Viability Reagent (Invitrogen; #A-13261). Paclitaxel was used as a control which is cytotoxic on various cancerous cells although not on chemoresistant MESSA DX5 lineage.

[1] = tested on: CyclinD1, FAS, p53, PARP, cMyc in LNCaP cells; assay: Protein expression by immunoblot, LNCaP; type: cell-based, human; conditions: for Myc expression level, LNCaP / PARP cleavage, LNCaP: 24 h; for Myc expression level, LNCaP / PARP cleavage, LNCaP / phosphorylated p53 (P-Ser392, P-Ser15), LNCaP: FIG. 8; for PARP cleavage, LNCaP: concentration dependent; for phosphorylated p53 (P-Ser392, P-Ser15), LNCaP: FIG. 7C
Procedure: In FIG. 6B and FIG. 6D, LNCaP cells were treated with dihydrotestosterone (DHT) to induce hormonal dependent FAS expression. Actin or Tubulin (Tub) serve as loading controls. One representative experiment out of three is presented.
Actin or Tubulin (Tub) serve as loading controls. One representative experiment out of three is presented.
Tubulin (Tub) serves as loading controls. One representative experiment out of three is presented.
Cells were treated by either DMSO (0.5%) or increasing doses of the selected molecules from 1 μM to 10 μM over 6 to 24 hours as indicated. Cell lysates were analyzed by immunoblotting following standard procedure using primary antibodies from Cell Signaling: anti-total P53 (#9282), anti-phosphoP53 Kit (#9919), anti-cyclinD1 (#2926), anti-FAS (#3189), anti EGFR (#4267), anti-Phospho (tyr1068) EGFR (#2234), anti Met (#4560), anti-Akt (#9272), anti Phospho(Ser473)-Akt (#9271) or anti-Myc (Santa Cruz Technology #Sc-40). Tubulin was detected using anti α-tubulin primary antibody (in-house: the polyclonal Glu-tubulin antibody (L4) is available commercially from Abcys (Paris, France)). HRP-coupled anti-rabbit (#A6154) and anti-mouse (#A4416) secondary antibodies were purchased from Sigma. HRP activity was detected through HRP chemoluminescence detection reagent (Millipore, #WBLUF0100). Apoptotic cell death induction was observed through the observation of PARP cleavage using anti-PARP primary antibodies anti-PARP (46D11) (#9532). Positive control was Epotoside at 50 μM or 100 μM, a known drug inducing cancerous cell death by apoptosis.

[2] = dose and time dependent, 6 h or 24 h, FIG. 6

SMILES: CCCCS(=O)(=O)Cc1nc2c(o1)C(=O)c1ccccc1C2=O [PCR9301]
- cell death in spheroids (PI area over Hoechst area) (LNCaP cells spheroids): to an ever higher extend
- cell growth inhibition and cell death induction, HCC827 (HCC827 cells): inhibit cell growth and induce cell death in a dose dependent manner
- pEC50 (HCT116 cells): 5.77
- Myc expression level, LNCaP [1]: cMyc degradation
- PARP cleavage, LNCaP [1]: induced PARP cleavage
- phosphorylated p53 (P-Ser392, P-Ser15), LNCaP [1]: phosphorylation of p53 on Ser15

SMILES: CCCCS(=O)(=O)Cc1nc2c(nc1CS(=O)(=O)CCCC)C(=O)c1ccccc1C2=O [PCR6236]
- cell death in spheroids (PI area over Hoechst area) (LNCaP cells spheroids): significant induction of a tumorous cells death
- cell growth inhibition and cell death induction, HCC827 (HCC827 cells): inhibit cell growth and induce cell death in a dose dependent manner
- pEC50 (HCT116 cells): 5.89
- Myc expression level, LNCaP [1]: decrease
- PARP cleavage, LNCaP [1]: induced the cleavage of PARP
- phosphorylated p53 (P-Ser392, P-Ser15), LNCaP [1]: accumulated
- expression level of CyclinD1, LNCaP [1, 2]: strongly decreased
- expression level of FAS, LNCaP [1, 2]: strongly decreased
- p53 expression, LNCaP ([1]; dose dependent, FIG. 7A): restored high levels of p53 expression
